According to patent publication US8252737B2, “Antimicrobial peptides and methods of use” (priority 2004, dated 2012):
In brackets after ≈: the same amount, converted by molar mass. Read-outs that look alike come from different tables or passages of the source. Square brackets hold non-standard residues; d marks the D form. Peptide text beside a SMILES is read from it.

Experiments:
[1] = test system: gram-positive bacteria
Protocol: (§1) Measurement of Antimicrobial Activity—Minimal inhibitory concentrations (MICs) were determined using a standard microtiter dilution method in LB (Luria-Bertani) no-salt medium (10 g of tryptone and 5 g of yeast extract per liter). Briefly, cells were grown overnight at 37° C. in LB and diluted in the same medium. […] Plates were incubated at 37° C. for 24 hours and MICs determined as the lowest peptide concentration that inhibited growth. Alternatively, minimal inhibitory concentrations were determined using a standard microtiter dilution method in a Mueller-Hinton (MH) medium. Briefly, cells were grown overnight at 37° C. in MH broth and diluted in the same medium. […] Plates were incubated at 37° C. for 24 hours and MICs determined as the lowest peptide concentration that inhibited growth. However, for MIC determination of Pseudomonas aeruginosa clinical isolates, brain heart infusion (BH1) medium was used instead of MH broth. In addition, the bacteria were diluted to a final inoculum of 1×10^6 colony-forming units/ml.

[2] = Circular dichroism spectroscopy of helical structure (benign buffer and 50% TFE); assay type: physicochemical; conditions: 25° C.; for % helix 50% TFE / % helix Benign: relative to NAL in 50% TFE; for [θ]222 Benign: benign buffer (100 mM KCl, 50 mM PO4 pH 7.0); for [θ]222 50% TFE: benign buffer diluted 1:1 (v/v) with TFE; for % helix Benign: benign buffer
Outline: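 Peptide CD spectra at 25 °C, 190–250 nm, in benign buffer (50 mM KH2PO4/K2HPO4, 100 mM KCl, pH 7) and in the same buffer with 50% TFE. Samples were a 10-fold dilution of ~500 μM stock. Mean residue molar ellipticity at 222 nm gave relative α-helicity.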

[3] = test system: gram-negative bacteria; assay: MIC, microtiter dilution, Gram-negative bacteria (geometric mean of 6 strains); assay type: cell-based; conditions: for MIC (μg/ml) Gram-negative: geometric mean MIC, Table 9
Protocol: The geometric mean MIC values from 6 microbial strains in this table were calculated to provide an overall evaluation of antimicrobial activity against gram-negative bacteria.
In Table 11, geometric mean MIC was calculated to provide an overall view of antimicrobial activity of the peptides against Gram-negative bacteria and was also used to calculate the therapeutic index.
as §1

[4] = test system: human erythrocytes; assay: Hemolytic activity (MHC), Protocol A, 12 hours
Protocol: Measurement of Hemolytic Activity—Protocol A: Peptide samples were added to 1% human erythrocytes in phosphate buffered saline (0.08M NaCl; 0.043M Na2PO4; 0.011M KH2PO4) and reactions were incubated at 37° C. for 12 hours in microtiter plates. Peptide samples were diluted 2 fold in order to determine the concentration that produced no hemolysis. […] Hemoglobin release was determined spectrophotometrically at 562 nm. The hemolytic titer was the highest 2-fold dilution of the peptide that still caused release of hemoglobin from erythrocytes. The control for no release of hemoglobin was a sample of 1% erythrocytes without any peptide added. […] Peptide samples were diluted 2 fold in order to determine the concentration that produced no hemolysis. […] Hemoglobin release was determined spectrophotometrically at 570 nm. The hemolytic titer was the highest 2-fold dilution of the peptide that still caused release of hemoglobin from erythrocytes. The control for no release of hemoglobin was a sample of 1% erythrocytes without any peptide added.

[5] = minimal hemolytic concentration on human red blood cells (hRBC), Table 9

CC[C@H](C)[C@H](NC(=O)[C@H](C)NC(=O)[C@H](CCCCN)NC(=O)[C@H](CC(C)C)NC(=O)[C@H](C)NC(=O)[C@@H](NC(=O)[C@H](Cc1c[nH]cn1)NC(=O)[C@H](CC(C)C)NC(=O)[C@@H](NC(=O)[C@@H](NC(=O)[C@H](CCCCN)NC(=O)[C@H](NC(=O)[C@H](C)NC(=O)[C@H](CO)NC(=O)[C@H](CCCCN)NC(=O)[C@H](Cc1ccccc1)NC(=O)[C@@H](NC(=O)[C@H](CCCCN)NC(=O)[C@H](CC(C)C)NC(=O)[C@H](Cc1ccccc1)NC(=O)[C@H](CO)NC(=O)[C@H](CCCCN)NC(=O)[C@H](Cc1c[nH]c2ccccc12)NC(=O)[C@H](CCCCN)NC(C)=O)[C@@H](C)O)C(C)C)[C@@H](C)O)C(C)C)[C@@H](C)O)C(=O)N[C@@H](CO)C(=O)N[C@@H](CO)C(N)=O [NVD]
MIC (μg/ml) Gram-positive ([1]; geometric mean MIC, Table 9): 2.8 µg/mL (≈ 0.945 µM)
% helix 50% TFE [2]: 90%
[θ]222 Benign [2]: −2,800 deg · cm^2 · dmol^−1
[θ]222 50% TFE [2]: −26,000 deg · cm^2 · dmol^−1
% helix Benign [2]: 10%
MIC (μg/ml) Gram-negative [3]: 3.3 µg/mL (≈ 1.11 µM)
MHC [4, 5]: 62.5 µg/mL

CC[C@H](C)[C@H](NC(=O)[C@H](C)NC(=O)[C@H](CCCCN)NC(=O)[C@H](CC(C)C)NC(=O)[C@H](C)NC(=O)[C@@H](NC(=O)[C@H](Cc1c[nH]cn1)NC(=O)[C@H](CC(C)C)NC(=O)[C@@H](NC(=O)[C@@H](NC(=O)[C@H](CCCCN)NC(=O)[C@@H](NC(=O)[C@H](C)NC(=O)[C@@H](C)NC(=O)[C@H](CCCCN)NC(=O)[C@H](Cc1ccccc1)NC(=O)[C@@H](NC(=O)[C@H](CCCCN)NC(=O)[C@H](CC(C)C)NC(=O)[C@H](Cc1ccccc1)NC(=O)[C@H](CO)NC(=O)[C@H](CCCCN)NC(=O)[C@H](Cc1c[nH]c2ccccc12)NC(=O)[C@H](CCCCN)NC(C)=O)[C@@H](C)O)C(C)C)[C@@H](C)O)C(C)C)[C@@H](C)O)C(=O)N[C@@H](CO)C(=O)N[C@@H](CO)C(N)=O [PAD] (Ac-KWKSFLKTFK[dA]AVKTVLHTALKAISS-NH2)
MIC (μg/ml) Gram-positive [1]: 3.8 µg/mL (≈ 1.29 µM)
% helix 50% TFE [2]: 94%
[θ]222 Benign [2]: −3,050 deg · cm^2 · dmol^−1
[θ]222 50% TFE [2]: −27,300 deg · cm^2 · dmol^−1
% helix Benign [2]: 11%
MIC (μg/ml) Gram-negative [3]: 4.3 µg/mL (≈ 1.46 µM)
MHC [4]: 15.6 µg/mL

CC[C@H](C)[C@H](NC(=O)[C@H](C)NC(=O)[C@H](CCCCN)NC(=O)[C@H](CC(C)C)NC(=O)[C@H](C)NC(=O)[C@@H](NC(=O)[C@H](Cc1c[nH]cn1)NC(=O)[C@H](CC(C)C)NC(=O)[C@@H](NC(=O)[C@@H](NC(=O)[C@H](CCCCN)NC(=O)[C@@H](NC(=O)[C@H](C)NC(=O)[C@@H](CCCCN)NC(=O)[C@H](CCCCN)NC(=O)[C@H](Cc1ccccc1)NC(=O)[C@@H](NC(=O)[C@H](CCCCN)NC(=O)[C@H](CC(C)C)NC(=O)[C@H](Cc1ccccc1)NC(=O)[C@H](CO)NC(=O)[C@H](CCCCN)NC(=O)[C@H](Cc1c[nH]c2ccccc12)NC(=O)[C@H](CCCCN)NC(C)=O)[C@@H](C)O)C(C)C)[C@@H](C)O)C(C)C)[C@@H](C)O)C(=O)N[C@@H](CO)C(=O)N[C@@H](CO)C(N)=O [PKD] (Ac-KWKSFLKTFK[dK]AVKTVLHTALKAISS-NH2)
MIC (μg/ml) Gram-positive [1]: 2.8 µg/mL (≈ 0.932 µM)
% helix 50% TFE [2]: 96%
[θ]222 Benign [2]: −2,500 deg · cm^2 · dmol^−1
[θ]222 50% TFE [2]: −27,800 deg · cm^2 · dmol^−1
% helix Benign [2]: 9%
MIC (μg/ml) Gram-negative [3]: 2.6 µg/mL (≈ 0.866 µM)
fold improvement on the average MIC compared to V681 ([3]; gram-negative bacteria, geometric mean comparison, Table 7): 3.4
MHC [4]: 31.2 µg/mL

CC[C@H](C)[C@H](NC(=O)[C@H](C)NC(=O)[C@H](CCCCN)NC(=O)[C@H](CC(C)C)NC(=O)[C@H](C)NC(=O)[C@@H](NC(=O)[C@H](Cc1c[nH]cn1)NC(=O)[C@H](CC(C)C)NC(=O)[C@@H](NC(=O)[C@@H](NC(=O)[C@H](CCCCN)NC(=O)[C@@H](NC(=O)[C@H](C)NC(=O)[C@@H](CC(C)C)NC(=O)[C@H](CCCCN)NC(=O)[C@H](Cc1ccccc1)NC(=O)[C@@H](NC(=O)[C@H](CCCCN)NC(=O)[C@H](CC(C)C)NC(=O)[C@H](Cc1ccccc1)NC(=O)[C@H](CO)NC(=O)[C@H](CCCCN)NC(=O)[C@H](Cc1c[nH]c2ccccc12)NC(=O)[C@H](CCCCN)NC(C)=O)[C@@H](C)O)C(C)C)[C@@H](C)O)C(C)C)[C@@H](C)O)C(=O)N[C@@H](CO)C(=O)N[C@@H](CO)C(N)=O [PLD] (Ac-KWKSFLKTFK[dL]AVKTVLHTALKAISS-NH2)
MIC (μg/ml) Gram-positive [1]: 4.7 µg/mL (≈ 1.57 µM)
% helix 50% TFE [2]: 90%
[θ]222 Benign [2]: −2,950 deg · cm^2 · dmol^−1
[θ]222 50% TFE [2]: −26,100 deg · cm^2 · dmol^−1
% helix Benign [2]: 10%
MIC (μg/ml) Gram-negative [3]: 5.0 µg/mL (≈ 1.67 µM)
MHC [4]: 31.2 µg/mL

CC[C@H](C)[C@H](NC(=O)[C@H](C)NC(=O)[C@H](CCCCN)NC(=O)[C@H](CC(C)C)NC(=O)[C@H](C)NC(=O)[C@@H](NC(=O)[C@H](Cc1c[nH]cn1)NC(=O)[C@H](CC(C)C)NC(=O)[C@@H](NC(=O)[C@@H](NC(=O)[C@H](CCCCN)NC(=O)[C@@H](NC(=O)[C@H](C)NC(=O)[C@@H](CO)NC(=O)[C@H](CCCCN)NC(=O)[C@H](Cc1ccccc1)NC(=O)[C@@H](NC(=O)[C@H](CCCCN)NC(=O)[C@H](CC(C)C)NC(=O)[C@H](Cc1ccccc1)NC(=O)[C@H](CO)NC(=O)[C@H](CCCCN)NC(=O)[C@H](Cc1c[nH]c2ccccc12)NC(=O)[C@H](CCCCN)NC(C)=O)[C@@H](C)O)C(C)C)[C@@H](C)O)C(C)C)[C@@H](C)O)C(=O)N[C@@H](CO)C(=O)N[C@@H](CO)C(N)=O [PSD]
geometric mean MIC against gram-positive bacteria ([1]; Table 8): 2.3 µg/mL
MIC (μg/ml) Gram-positive ([1]; geometric mean MIC, Table 9): 2.3 µg/mL (≈ 0.777 µM)
fold improvement in antimicrobial activity compared to V681 ([1]; gram-positive bacteria, geometric mean MIC, Table 8): 2.7
% helix 50% TFE [2]: 90%
[θ]222 Benign [2]: −2,800 deg · cm^2 · dmol^−1
[θ]222 50% TFE [2]: −26,000 deg · cm^2 · dmol^−1
% helix Benign [2]: 10%
MIC (μg/ml) Gram-negative [3]: 2.9 µg/mL (≈ 0.979 µM)
MHC [4, 5]: 15.6 µg/mL

CC[C@H](C)[C@H](NC(=O)[C@H](C)NC(=O)[C@H](CCCCN)NC(=O)[C@H](CC(C)C)NC(=O)[C@H](C)NC(=O)[C@@H](NC(=O)[C@H](Cc1c[nH]cn1)NC(=O)[C@H](CC(C)C)NC(=O)[C@@H](NC(=O)[C@@H](NC(=O)[C@H](CCCCN)NC(=O)[C@@H](NC(=O)[C@H](C)NC(=O)[C@H](NC(=O)[C@H](CCCCN)NC(=O)[C@H](Cc1ccccc1)NC(=O)[C@@H](NC(=O)[C@H](CCCCN)NC(=O)[C@H](CC(C)C)NC(=O)[C@H](Cc1ccccc1)NC(=O)[C@H](CO)NC(=O)[C@H](CCCCN)NC(=O)[C@H](Cc1c[nH]c2ccccc12)NC(=O)[C@H](CCCCN)NC(C)=O)[C@@H](C)O)C(C)C)C(C)C)[C@@H](C)O)C(C)C)[C@@H](C)O)C(=O)N[C@@H](CO)C(=O)N[C@@H](CO)C(N)=O [PVD] (Ac-KWKSFLKTFK[dV]AVKTVLHTALKAISS-NH2)
MIC (μg/ml) Gram-positive [1]: 6.6 µg/mL (≈ 2.22 µM)
% helix 50% TFE [2]: 72%
[θ]222 Benign [2]: −2,400 deg · cm^2 · dmol^−1
[θ]222 50% TFE [2]: −20,800 deg · cm^2 · dmol^−1
% helix Benign [2]: 8%
MIC (μg/ml) Gram-negative [3]: 6.1 µg/mL (≈ 2.05 µM)
fold decrease in hemolytic activity compared to the L-diastereomer [4]: 16
minimal hemolytic concentration (MHC) ([4]; incubation for 12 hours at 37° C. (Tables 7 and 8)): 125 µg/mL
MHC [4, 5]: 125.0 µg/mL
